Results: PubChem BioAssay (NCI)
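Where inhibition never reached the appropriate level, the endpoint shown equals the highest concentration tested. Otherwise, values were interpolated linearly from a five-concentration, 48-hour dose response in 96-well plates. TGI is the concentration that stops growth completely.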

Assays:
Test in all cases: inhibition of tumour cell growth, NCI panel, 48 h
HOP-18 NSCLC = test system: HOP-18 NSCLC
M19-MEL melanoma = test system: M19-MEL melanoma
MDA-MB-435 = test system: MDA-MB-435
MDA-N = test system: MDA-N
RXF-631 renal = test system: RXF-631 renal
T-47D breast = test system: T-47D breast
KM20L2 colon = test system: KM20L2 colon
MCF7 breast = test system: MCF7 breast

## CCCCC1N=CNc2c1ccc1c2[nH]c2ccccc21 (stereo not given)
HOP-18 NSCLC
  TGI: 22.5 µM
M19-MEL melanoma
  TGI: 11.8 µM
MDA-MB-435
  TGI: 3.35 µM
MDA-N
  TGI: 3.28 µM
RXF-631 renal
  TGI: 5.97 µM
T-47D breast
  TGI: 3.2 µM

## C[C@H]1CCC2C(CN3CCCCC3)C(=O)OC2[C@]2(C)C(=O)CC(N3CCCCC3)C12O (stereo not given in full)
HOP-18 NSCLC
  TGI: 48.4 µM
M19-MEL melanoma
  TGI: 23.9 µM
RXF-631 renal
  TGI: 3.71 µM

## Cc1ccc(S(=O)(=O)OC2CSSCC2OS(=O)(=O)c2ccc(C)cc2)cc1 (stereo not given)
HOP-18 NSCLC
  TGI: 31.1 µM
KM20L2 colon
  TGI: 30.4 µM
M19-MEL melanoma
  TGI: 26.3 µM
RXF-631 renal
  TGI: 26.5 µM

## O=C(O)c1ccccc1C1c2ccc(Cl)cc2Oc2cc(Cl)ccc21
HOP-18 NSCLC
  TGI: > 100 µM
KM20L2 colon
  TGI: > 100 µM
M19-MEL melanoma
  TGI: > 100 µM
RXF-631 renal
  TGI: > 100 µM

## COc1cc(=O)oc(/C=C/CO)c1C
HOP-18 NSCLC
  TGI: > 100 µM
KM20L2 colon
  TGI: > 100 µM
M19-MEL melanoma
  TGI: > 100 µM
RXF-631 renal
  TGI: > 100 µM

## Cc1cc2c(C)nn(Cc3ccccc3Cl)c2c(C#N)c1C
HOP-18 NSCLC
  TGI: > 100 µM
KM20L2 colon
  TGI: > 100 µM
M19-MEL melanoma
  TGI: > 100 µM
RXF-631 renal
  TGI: > 100 µM

## N/C(=N/N=C/c1cccc(F)c1)NO
HOP-18 NSCLC
  TGI: > 100 µM
KM20L2 colon
  TGI: > 100 µM
M19-MEL melanoma
  TGI: > 100 µM
RXF-631 renal
  TGI: > 100 µM

## O=Cc1cn(S(=O)(=O)c2ccccc2)c2ccccc12
HOP-18 NSCLC
  TGI: > 100 µM
KM20L2 colon
  TGI: > 100 µM
M19-MEL melanoma
  TGI: > 100 µM
RXF-631 renal
  TGI: > 100 µM

## COc1cc([C@@H]2c3cc4c(cc3[C@@H](NC(=O)c3ccc(OC(C)=O)cc3)C3COC(=O)[C@@H]32)OCO4)cc(OC)c1O (stereo not given in full)
HOP-18 NSCLC
  TGI: > 100 µM
KM20L2 colon
  TGI: 12.7 µM
M19-MEL melanoma
  TGI: 40.1 µM
RXF-631 renal
  TGI: 17.3 µM

## C/C(CC(=O)Nc1cccc(C)c1C)=N\NC(N)=S
HOP-18 NSCLC
  TGI: > 100 µM
KM20L2 colon
  TGI: > 100 µM
M19-MEL melanoma
  TGI: > 100 µM
RXF-631 renal
  TGI: > 100 µM

## COC(=O)Cc1nn2c(nc1=O)sc1ccc3ccccc3c12
HOP-18 NSCLC
  TGI: > 100 µM
KM20L2 colon
  TGI: > 100 µM
M19-MEL melanoma
  TGI: > 100 µM
RXF-631 renal
  TGI: > 100 µM

## Cc1cc(Cl)ccc1Nc1nc2c(s1)C(=O)c1ccccc1C2=O
HOP-18 NSCLC
  TGI: 12.5 µM
KM20L2 colon
  TGI: 39.4 µM
M19-MEL melanoma
  TGI: 2.06 µM
MCF7 breast
  TGI: 3.72 µM
RXF-631 renal
  TGI: 20.2 µM
T-47D breast
  TGI: 7.06 µM

## COc1ccc(NC(=O)C2=CC(=O)c3ccc(O)cc3C2=O)c(OC)c1
HOP-18 NSCLC
  TGI: > 100 µM
KM20L2 colon
  TGI: > 100 µM
M19-MEL melanoma
  TGI: > 100 µM
RXF-631 renal
  TGI: > 100 µM

## C=CCn1c(=O)c(C(=O)NC(=O)OCC)cn(C2CCCCC2)c1=O
HOP-18 NSCLC
  TGI: > 100 µM
KM20L2 colon
  TGI: > 100 µM
RXF-631 renal
  TGI: > 100 µM

## CCOC(=O)Cn1c(=O)[nH]c(=O)c2[nH]cnc21
HOP-18 NSCLC
  TGI: > 100 µM
KM20L2 colon
  TGI: > 100 µM
M19-MEL melanoma
  TGI: > 100 µM
RXF-631 renal
  TGI: > 100 µM

## NNC(=S)NN/C=C(\C=Nc1ccccc1)[N+](=O)[O-]
KM20L2 colon
  TGI: > 100 µM
M19-MEL melanoma
  TGI: > 100 µM
RXF-631 renal
  TGI: > 100 µM
